Measurements from PMC9532399, “The lysosomal transporter TAPL has a dual role as peptide translocator and phosphatidylserine floppase” (Nature Communications, 2022).
Changes are numbered by the printed parent chain. Residues, ends and D or L forms follow the SMILES beside them. *: point of attachment. X1 = CC[N+]1=C(C=CC=CC=C2N(CCCCCC(=O)NCCN3C(=O)CC(*)C3=O)c3ccc(S(=O)(=O)[O-])cc3C2(C)C)C(C)(C)c2cc(S(=O)(=O)O)ccc21

Tests used:
TAPL Y405A mutant = molecular target: T1, TAPL Y405A mutant (Mus musculus, UniProt Q9JJ59, Y405A); assay: Microscale thermophoresis, DM-purified Y405A; type: binding; conditions: Y405A vs wild-type
T1 construct: thrombin cleavage site (C); eGFP (C); 10XHis (C); made in house; host or cells: Trichoplusia ni High Five (Hi5) insect cells, baculovirus (pVL1393)
T1 sequence (Q9JJ59 143-762 Y405A): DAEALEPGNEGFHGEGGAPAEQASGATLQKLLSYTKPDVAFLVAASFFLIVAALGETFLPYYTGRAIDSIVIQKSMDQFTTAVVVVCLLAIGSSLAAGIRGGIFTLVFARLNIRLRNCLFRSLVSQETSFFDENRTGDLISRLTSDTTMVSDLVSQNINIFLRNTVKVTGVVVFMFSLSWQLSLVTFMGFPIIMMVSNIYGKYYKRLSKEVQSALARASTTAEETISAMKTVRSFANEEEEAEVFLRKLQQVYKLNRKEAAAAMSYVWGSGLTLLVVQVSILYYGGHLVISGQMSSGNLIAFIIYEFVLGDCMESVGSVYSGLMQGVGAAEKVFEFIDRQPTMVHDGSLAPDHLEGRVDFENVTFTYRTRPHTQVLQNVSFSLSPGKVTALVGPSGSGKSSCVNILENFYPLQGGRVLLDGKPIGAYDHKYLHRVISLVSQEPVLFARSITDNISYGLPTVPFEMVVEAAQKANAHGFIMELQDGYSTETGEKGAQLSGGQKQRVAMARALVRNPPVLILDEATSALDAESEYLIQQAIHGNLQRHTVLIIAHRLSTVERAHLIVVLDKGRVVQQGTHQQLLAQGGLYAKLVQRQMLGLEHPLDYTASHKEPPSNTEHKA
Method: Binding of 9-mer peptide (RRYQNSTC^Cy-5L) to DM-purified ΔTMD0 was monitored by microscale thermophoresis as described previously. Briefly, 9-mer peptide was incubated with a 10x molar excess of Cy5 dye (Thermo Fisher Scientific) in 50 mM HEPES–NaOH pH 7.5 at RT for 2 h. The labeled peptide was purified from the excess dye with a desalting column. Cy5-labeled peptide (0.2 μM) was added to serial 2-fold dilutions of protein. The mixtures were incubated for 10 min at RT and loaded onto Monolith NT.115 standard-treated capillaries (NanoTemper Technologies). Thermophoretic movements were induced by infrared laser activation. Subsequent fluorescence changes were monitored with a Monolith NT.115 pico device and plotted against protein concentration. The results were analyzed with MO.Affinity Analysis software.

[1] = design: method as in PMID 11867457; conditions: cited from earlier work
mouse TAPL ΔTMD0 = molecular target: T2, mouse TAPL ΔTMD0 (Mus musculus, UniProt Q9JJ59); assay: NADH-coupled ATPase assay, nanodisc-reconstituted ΔTMD0; type: biochemical; conditions: POPE nanodiscs, data not shown
T2 construct: thrombin cleavage site (C); eGFP (C); 10XHis (C); made in house; host or cells: Trichoplusia ni High Five (Hi5) insect cells, baculovirus (pVL1393)
T2 sequence (Q9JJ59 143-762): T1 sequence (Q9JJ59 143-762 Y405A) with A263Y
Method: […] Each lipid was dissolved in 0.17% (w/v) DM and 0.017% (w/v) CHS and mixed with MSP1 and DM/CHS-purified ΔTMD0 at a molar ratio of 150:4:1. After incubation on ice for 10 min, the mixture was treated with 60 mg of Bio-beads (Bio-Rad) at 4 °C for 4 h to remove detergent. The supernatant was additionally incubated overnight with 120 mg of fresh Bio-Beads at 4 °C. The final supernatant was injected onto a Superdex 200 Increase 10/300 GL column equilibrated with a buffer of 20 mM HEPES–NaOH pH 7.5 and 200 mM NaCl. The elution fractions containing protein-loaded nanodiscs were pooled and used for cryo-EM and functional analyses.
The ATPase activities of proteins obtained after various purification procedures were determined by NADH-coupled spectrophotometric assays. 10 μg of DM-purified or nanodisc-reconstituted protein was added to 140 μL of reaction buffer containing 50 mM HEPES–KOH pH 8.0, 60 μg/mL pyruvate kinase (Roche), 16 μg/mL lactate dehydrogenase (Roche), 10 mM phosphoenolpyruvate (Roche), 0.3 mM NADH, 3 mM ATP, 10 mM MgCl2, and 0.17% (w/v) DM in the presence or absence of 250 μM peptide. […] ATP hydrolysis activity was monitored at 37 °C for 3 min by measuring the rate of decline of NADH absorbance at 340 nm. […] The kinetic parameters of ATP hydrolysis were calculated by fitting the initial rates of ATP hydrolysis to the Michaelis–Menten equation using PRISM 4.0 (GraphPad software).

[2] = Aggregation in ATPase reaction buffer; type: physicochemical; conditions: addition to the ATPase reaction buffer, data not shown
Method: The ATPase activities of proteins obtained after various purification procedures were determined by NADH-coupled spectrophotometric assays. 10 μg of DM-purified or nanodisc-reconstituted protein was added to 140 μL of reaction buffer containing 50 mM HEPES–KOH pH 8.0, 60 μg/mL pyruvate kinase (Roche), 16 μg/mL lactate dehydrogenase (Roche), 10 mM phosphoenolpyruvate (Roche), 0.3 mM NADH, 3 mM ATP, 10 mM MgCl2, and 0.17% (w/v) DM in the presence or absence of 250 μM peptide. For proteins reconstituted into nanodiscs, DM was not added to the reaction buffer. For lipid-stimulated ATPase assays, the thin film of lipids was hydrated in 100 μL of buffer containing 50 mM HEPES–KOH pH 8.0 and 10 mM MgCl2 to yield a 10 mM solution. After sonication of the lipid solution for 10 min to decrease its turbidity, the reaction was initiated by adding varying concentrations of lipids to the mixture. ATP hydrolysis activity was monitored at 37 °C for 3 min by measuring the rate of decline of NADH absorbance at 340 nm. To inhibit ATP hydrolysis, the reaction mixture was incubated with 3 mM AMP-PNP or 8 mM NaF/2 mM BeSO4 for 5 min at RT. The kinetic parameters of ATP hydrolysis were calculated by fitting the initial rates of ATP hydrolysis to the Michaelis–Menten equation using PRISM 4.0 (GraphPad software).

Compound: CC[N+]1=C(C=CC=CC=C2N(CCCCCC(=O)NCCN3C(=O)CC(SC[C@H](NC(=O)[C@@H](NC(=O)[C@H](CO)NC(=O)[C@H](CC(N)=O)NC(=O)[C@H](CCC(N)=O)NC(=O)[C@H](Cc4ccc(O)cc4)NC(=O)[C@H](CCCNC(=N)N)NC(=O)[C@@H](N)CCCNC(=N)N)[C@@H](C)O)C(=O)N[C@@H](CC(C)C)C(=O)O)C3=O)c3ccc(S(=O)(=O)[O-])cc3C2(C)C)C(C)(C)c2cc(S(=O)(=O)O)ccc21 (stereo partly drawn) [RRYQNSTC^Cy-5L] (H-RRYQNSTC(X1)L-OH; N-terminus and C-terminus assumed)
- decrease in peptide affinity (TAPL Y405A mutant): 73 fold

Compound: CC(C)CCC[C@@H](C)[C@H]1CC[C@H]2[C@@H]3CC=C4C[C@@H](O)CC[C@]4(C)[C@H]3CC[C@]12C [cholesterol]
- time of spontaneous movement across the liposome bilayer [1]: < 1 min

Compound: CCCCCCCC/C=C\CCCCCCCC(=O)O[C@H](COC(=O)CCCCCCCCCCCCCCC)COP(=O)(O)OCCN [POPE, 1-palmitoyl-2-oleoyl-sn-glycero-3-phosphoethanolamine]
- ΔTMD0 ATPase activity in nanodiscs (mouse TAPL ΔTMD0): no ΔTMD0 activity was detected
- aggregation [2]: caused nonspecific aggregation
